This is an account of results in ChEMBL document CHEMBL1148828, “Deoxycholic acid-derived tetraoxane antimalarials and antiproliferatives(1)” (J Med Chem, 2007).

Activity calls are given as the source filed them. The calls are words filed in the database; no cut-off is given here.

The subject of data set [1] is Plasmodium falciparum. The experiment in a line: Antimalarial activity against Plasmodium falciparum W2. The format is functional, organism-based.
Data set [2] has as its system Plasmodium falciparum. The experiment in a line: Antimalarial activity against Plasmodium falciparum D6. The format is functional, organism-based.
Data set [3] relates to Plasmodium falciparum. The experiment in a line: Antimalarial activity against Plasmodium falciparum TM91C235. The format is functional, organism-based.
For data set [4], the system named is Mus musculus. The experiment in a line: Survival of Plasmodium berghei KBG 173 infected CD1 mice (Mus musculus) at 40 mg/kg/day. The format is ADME, organism-based. The note with it: in vivo.
In data set [5] the test system is Mus musculus. The experiment in a line: Survival of Plasmodium berghei KBG 173 infected CD1 mice (Mus musculus) at 20 mg/kg/day. The format is ADME, organism-based. The note with it: in vivo.
In the next data set the test system is Liver microsomes. The experiment in a line: Metabolic stability in human liver microsomes. The format is ADME, Microsome. The note with it: microsomes.
The nature of data set [6]: Metabolic stability in mouse liver microsomes. The format is ADME, Microsome.
A further data set concerns NCI. Kind of data set: Growth inhibition of human NCI DTP 60 cells. The format is functional.
Another data set has as its system LOX IMVI. The experiment in a line: Antiproliferative activity against human LOX IMVI cells after 48 hrs. The format is functional.
Another data set concerns MDA-MB-435. The experiment in a line: Antiproliferative activity against human MDA-MB-435 cells after 48 hrs. The format is functional. The note with it: for CC50: read-out: LC50 (the source's name).
The next data set concerns CAKI-1. The experiment in a line: Antiproliferative activity against human CAKI1 cells after 48 hrs. The format is functional. The note with it: CAKI-1, 48 h.
Another data set relates to CCRF-CEM. The experiment in a line: Antiproliferative activity against human CCRF-CEM cells after 48 hrs. The format is functional.
The next data set concerns NCI-H322M. The experiment in a line: Antiproliferative activity against human NCI-H322M cells after 48 hrs. The format is functional.
In a further data set the test system is OVCAR-3. The experiment in a line: Antiproliferative activity against human OVCAR-3 cells after 48 hrs. The format is functional. The note with it: OVCAR-3, 48 h.
The species named for data set [7] is Mus musculus. Kind of data set: Toxicity in Plasmodium berghei KBG 173 infected CD1 mice (Mus musculus). The format is organism-based. The note with it: mouse, in vivo.
The test system of data set [8] is Plasmodium berghei. Kind of data set: Antimalarial activity as survivors after 31 days in Plasmodium berghei KBG173 infected CD1 mice (Mus musculus) at 20 mg/kg/day. The format is functional, organism-based. The note with it: KBG 173.
Data set [9] deals with Mus musculus. The experiment in a line: Survival of Plasmodium berghei KBG 173 infected CD1 mice (Mus musculus) at 320 mg/kg/day. The note with it: in vivo. The format is ADME, organism-based.
The test system of data set [10] is Mus musculus. The experiment in a line: Survival of Plasmodium berghei KBG 173 infected CD1 mice (Mus musculus) at 80 mg/kg/day. The note with it: in vivo. The format is ADME, organism-based.
The subject of another data set is NCI-H23. Kind of data set: Antiproliferative activity against human NCI-H23 cells after 48 hrs. The format is functional. The note with it: NCI-H23, 48 h.
For the next data set, the system named is SN12C. The experiment in a line: Antiproliferative activity against human SN12C cells after 48 hrs. The format is functional.
The subject of the next data set is HOP-92. The experiment in a line: Antiproliferative activity against human HOP92 cells after 48 hrs. The format is functional. The note with it: Homo sapiens, HOP-92, 48 h.
The subject of a further data set is ACHN. The experiment in a line: Antiproliferative activity against human ACHN cells after 48 hrs. The format is functional.
In data set [11] the test system is Plasmodium berghei. The experiment in a line: Antimalarial activity as survivors after 31 days in Plasmodium berghei KBG173 infected CD1 mice (Mus musculus) at 80 mg/kg/day. The format is functional, organism-based. The note with it: KBG 173.
Where [12] appears, read: read-out: LC50 (the source's name).

Take `CC(=O)O[C@H]1C[C@H]2[C@@H]([C@H](OC(C)=O)C[C@@H]3CC4(CC[C@@]32C)OOC2(CCC(C)CC2)OO4)[C@@H]2CC[C@H]([C@H](C)CCC(=O)NCCN(C)C)[C@@]12C` (stereo in doubt; 22) [listing 1 of 2 here]: the IC50 with Plasmodium falciparum [1] worked out at 16.7 nM; in the data set with Plasmodium falciparum [2], 18.6 nM; in the data set on Plasmodium falciparum [3] it was 12.2 nM. Moreover, the values for the IC90 with Plasmodium falciparum [1], in the data set on Plasmodium falciparum [2] and in the data set with Plasmodium falciparum [3] were 24.8 nM, 27.8 nM and 18.5 nM, respectively. Further, the results for the Survival in the data set with Mus musculus [4] and with Mus musculus [5] were 19 days and 9 days, respectively. Besides, in the data set on Liver microsomes, the t1/2 was found to be 42 min. The half-life in data set [6] (liver microsomes) is 77 min. In addition, the GI50 in the data set on NCI came to 180 nM; in the data set on LOX IMVI, 183 nM; in the data set with MDA-MB-435, 1530 nM; in the data set with CAKI-1, 1370 nM; with CCRF-CEM, 258 nM; in the data set with NCI-H322M, 1460 nM. In addition, in the data set on OVCAR-3, halving of growth (GI50) required 1190 nM. Moreover, the concentration for total growth inhibition (TGI) in the data set with MDA-MB-435 turned out to be 2910 nM; with CAKI-1, 2690 nM; with CCRF-CEM, 725 nM; in the data set on NCI-H322M it was 2790 nM; in the data set on OVCAR-3, 2470 nM. Moreover, the CC50 in the data set with MDA-MB-435 (Homo sapiens, MDA-MB-435, 48 h) is 5.52 µM; in the data set on CAKI-1 (setting [12]) it was 5.29 µM; in the data set with NCI-H322M (setting [12]) it was 5.34 µM; in the data set with OVCAR-3 (setting [12]) it was 5.11 µM. Besides, in the data set filed under Mus musculus [7], the MCD worked out at 40 mg/kg/day.

`CC(=O)O[C@H]1C[C@H]2[C@@H]([C@H](OC(C)=O)C[C@@H]3CC4(CC[C@@]32C)OOC2(CCC(C)CC2)OO4)[C@@H]2CC[C@H]([C@H](C)CCC(=O)NCCN(C)C)[C@@]12C` (stereo in doubt; 22) [listing 2 of 2 here]: the outcome in the data set on Plasmodium berghei [8] was inactive.

Consider `CC(=O)O[C@H]1C[C@H]2[C@@H]([C@H](OC(C)=O)C[C@@H]3CC4(CC[C@@]32C)OOC2(CCC(C)CC2)OO4)[C@@H]2CC[C@H]([C@H](C)CCC(=O)NCCN(C)C)[C@@]12C` (stereo in doubt; 23) [listing 1 of 2 here], for which the IC50 in the data set with Plasmodium falciparum [1] amounted to 43.5 nM; in the data set with Plasmodium falciparum [2] it was 43.8 nM; with Plasmodium falciparum [3] it was 39.2 nM. In addition, the IC90 with Plasmodium falciparum [1] is 94 nM; in the data set on Plasmodium falciparum [2], 71.2 nM; in the data set on Plasmodium falciparum [3], 102 nM. The figures for the Survival with Mus musculus [9] and in the data set with Mus musculus [10] were 17 days and 11 days, respectively. Besides, the t1/2 with Liver microsomes was 120 min; in [6] (microsomes), above 120 min. In addition, the GI50 in the data set on NCI stood at 57 nM; in the data set with NCI-H23 it was 318 nM; in the data set on LOX IMVI, 57 nM; in the data set with SN12C it was 606 nM; in the data set on MDA-MB-435, 650 nM; in the data set with HOP-92 it was 70 nM. Moreover, the GI50 with CCRF-CEM was 67 nM; in the data set on ACHN, 592 nM. Also, the LC50 (concentration killing 50% of cells) with NCI-H23 was 3.11 µM; in the data set with LOX IMVI (Homo sapiens, LOX IMVI, 48 h) it was 295 nM; in the data set with SN12C, 2720 nM; with HOP-92, 2860 nM; in the data set on CCRF-CEM (Homo sapiens, CCRF-CEM, 48 h), 340 nM; with ACHN, 2640 nM. In addition, the TGI is 1690 nM with NCI-H23; 130 nM in the data set with LOX IMVI (Homo sapiens, LOX IMVI, 48 h); 1280 nM in the data set with SN12C; 1340 nM in the data set on MDA-MB-435; 695 nM in the data set on HOP-92; 151 nM in the data set on CCRF-CEM. In the data set with ACHN, total growth inhibition (TGI) required 1250 nM. Moreover, the CC50 in the data set on MDA-MB-435 stood at 2.78 µM.

`CC(=O)O[C@H]1C[C@H]2[C@@H]([C@H](OC(C)=O)C[C@@H]3CC4(CC[C@@]32C)OOC2(CCC(C)CC2)OO4)[C@@H]2CC[C@H]([C@H](C)CCC(=O)NCCN(C)C)[C@@]12C` (stereo in doubt; 23) [listing 2 of 2 here]: the result with Plasmodium berghei [11] was inactive.
